Experimental data from patent US20210315893A1 (Galapagos NV, priority 2017, published 2021).

What was measured:
HFL-1 cells [1] = assay: IL-8 production assay (S1P induced IL-8); type: cell-based; details: Homo sapiens, HFL1; S1P (1 μM) induced IL-8 in HFL-1 cells, starvation medium without HSA; read-out: IL8 EC50
Summary of the method: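 HFL-1 human fetal lung fibroblasts were starved in F12K/1% FBS, then given compound for 1 h (10-point, 1/3 dilution, 30 μM top, 0.3% DMSO final). S1P was added at 1 μM final for 16–24 h at 37 °C, and secreted IL-8 in supernatant quantified by ELISA.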

S1PR2 = molecular target: T1, S1PR2 (Homo sapiens, UniProt O95136); assay: S1PR2 binding assay (competition with radioactively labeled S1P, SpA); details: membranes from stable cell line over expressing S1PR2, SpA beads; read-out: S1P2 EC50 (nM), S1PR2 binding EC50
T1 construct: expressed in transfected cells
T1 sequence (O95136 whole entry): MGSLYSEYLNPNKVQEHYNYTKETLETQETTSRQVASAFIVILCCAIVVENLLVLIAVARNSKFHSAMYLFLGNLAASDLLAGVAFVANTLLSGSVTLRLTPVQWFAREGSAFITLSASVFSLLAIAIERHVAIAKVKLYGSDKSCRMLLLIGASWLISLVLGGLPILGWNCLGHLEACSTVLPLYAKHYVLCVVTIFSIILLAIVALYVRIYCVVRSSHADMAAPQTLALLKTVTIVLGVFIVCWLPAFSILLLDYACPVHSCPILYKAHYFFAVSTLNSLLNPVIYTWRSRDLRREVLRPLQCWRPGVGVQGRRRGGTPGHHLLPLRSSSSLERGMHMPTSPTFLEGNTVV
Summary of the method: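 Competition with [3H]S1P for membranes from a stable S1PR2-overexpressing cell line, 20 μg/well, captured on PVT-WGA SPA beads, in 20 mM Tris pH 7.5, 10 mM MgCl2, 100 mM NaCl, 0.4% fatty-acid-free BSA, 1 mM Na3VO4. 2 h at room temperature, then centrifugation and scintillation counting.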

[2] = molecular target: T2, human GPCR sphingosine 1-phosphate receptor 2 (Homo sapiens, UniProt O95136); assay: S1PR2 antagonist Ca2+ flux assay; type: cell-based; details: antagonist mode, CHO-S1PR2 cells, S1P at EC80, Ca2+ fluorescence; read-out: S1P2 EC50 (nM), S1P2 antagonist EC50
T2 construct: host or cells: CHO
T2 sequence (O95136 whole entry): as above
Summary of the method: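 CHO cells stably expressing human S1PR2, serum-starved 1 h, Fluo8-loaded; compound-evoked Ca2+ fluorescence read 3 min (agonist mode), then after 15 min S1P at EC80 added and read 3 min (antagonist mode). Max/baseline fluorescence ratios normalised to vehicle and S1P EC100 or EC50 controls; EC50 derived.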

[3] = molecular target: T3, human GPCR sphingosine 1-phosphate receptor 1 (Homo sapiens, UniProt P21453); assay: S1PR1 selectivity Ca2+ flux assay (antagonist readout); type: cell-based; details: antagonist readout, CHO cells overexpressing human S1PR1 and Gq, S1P at EC80 (6 nM); read-out: S1P1 EC50 (nM), S1P1 antagonist EC50
T3 construct: host or cells: CHO
T3 sequence (P21453 whole entry): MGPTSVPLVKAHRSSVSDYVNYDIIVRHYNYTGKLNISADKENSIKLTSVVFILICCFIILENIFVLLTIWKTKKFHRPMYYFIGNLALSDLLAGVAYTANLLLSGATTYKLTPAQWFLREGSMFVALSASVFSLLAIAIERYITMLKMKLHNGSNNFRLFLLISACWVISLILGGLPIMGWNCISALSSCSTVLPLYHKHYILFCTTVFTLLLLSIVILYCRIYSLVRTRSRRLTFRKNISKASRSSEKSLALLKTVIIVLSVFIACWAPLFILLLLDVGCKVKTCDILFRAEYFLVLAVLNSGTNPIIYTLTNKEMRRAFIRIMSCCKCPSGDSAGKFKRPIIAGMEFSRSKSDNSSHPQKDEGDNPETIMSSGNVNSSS
Summary of the method: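 CHO cells stably overexpressing human S1PR1, starved 1 h in 0.1% FAF BSA medium, then Fluo 8 dye-loaded. Compound added, then after 15 min at 37 °C, S1P-evoked Ca2+ flux recorded. Maximal signal/background ratio normalized to controls as % inhibition; IC50 from four-parameter logistic fit.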

[4] = molecular target: T4, human GPCR sphingosine 1-phosphate receptor 5 (Homo sapiens, UniProt Q9H228); assay: S1PR5 selectivity Ca2+ flux assay (antagonist readout); type: cell-based; details: CHO cells overexpressing human S1PR5 and Gq, agonist at EC80 (20 nM), read-out: S1P5 EC50 (nM), S1P5 antagonist EC50
T4 construct: host or cells: CHO
T4 sequence (Q9H228 whole entry): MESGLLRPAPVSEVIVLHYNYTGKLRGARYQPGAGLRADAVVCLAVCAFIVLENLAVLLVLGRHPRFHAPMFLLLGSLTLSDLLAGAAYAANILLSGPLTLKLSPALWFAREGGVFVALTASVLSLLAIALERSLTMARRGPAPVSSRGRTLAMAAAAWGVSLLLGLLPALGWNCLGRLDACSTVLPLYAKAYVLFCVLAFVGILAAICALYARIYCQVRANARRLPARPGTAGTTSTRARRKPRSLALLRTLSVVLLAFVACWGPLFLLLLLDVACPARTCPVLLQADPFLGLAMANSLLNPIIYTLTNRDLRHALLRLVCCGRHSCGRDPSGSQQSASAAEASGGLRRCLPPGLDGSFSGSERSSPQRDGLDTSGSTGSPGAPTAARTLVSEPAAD
Summary of the method: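 CHO cells stably coexpressing human S1PR5 and Gq were serum-starved, Fluo 8-loaded and preincubated 15 min at 37° C with compound. They were then stimulated at EC80 with an S1PR5-specific agonist, and calcium fluorescence was recorded for 3 min. Peak/baseline ratios were normalized to controls and fitted to a four-parameter IC50 equation.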

HFL-1 cells [5] = assay: IL8 assay in the presence of Human Serum Albumin; details: HFL1, read-out: HSA IL8 EC50

| SMILES | EC50 (HFL-1 cells [1]) [nM] | EC50 (S1PR2) [nM] | EC50 [2] [nM] | EC50 [3] [nM] | EC50 [4] [nM] | EC50 (HFL-1 cells [5]) [nM] |
| --- | --- | --- | --- | --- | --- | --- |
| COCCOc1cc2nc(Cc3nn(C4CCNC4)c(=O)c4ccccc34)[nH]c2cc1Cl (stereo not drawn) [Compound 67, 4-[[6-chloro-5-(2-methoxyethoxy)-1H-benzimidazol-2-yl]methyl]-2-pyrrolidin-3-yl-phthalazin-1-one] | 9.07 | 64.9 | 37.4 | ≥ 19800 | 19800 | 19.2 |
| N#Cc1cc2[nH]c(Cc3nn(C4CNC4)c(=O)c4ccccc34)nc2cc1OCC(F)F [Compound 68, 2-[[3-(azetidin-3-yl)-4-oxo-phthalazin-1-yl]methyl]-6-(2,2-difluoroethoxy)-3H-benzimidazole-5-carbonitrile] | 76.7 | 275 | 547 | ≥ 19800 | 19800 | 123 |
| N#Cc1cc2[nH]c(Cc3nn(C4CN(CC(=O)O)C4)c(=O)c4ccccc34)nc2cc1OCC(F)F [Compound 69, 2-[3-[4-[[6-cyano-5-(2,2-difluoroethoxy)-1H-benzimidazol-2-yl]-methyl]-1-oxo-phthalazin-2-yl]azetidin-1-yl]acetic acid] | 109 | 272 | 238 | ≥ 19800 | 19800 | 96.3 |
| N#Cc1cc2[nH]c(Cc3nn(CC4CCCN4CC(=O)O)c(=O)c4ccccc34)nc2cc1OCC(F)F (stereo not drawn) [Compound 70, 2-[2-[[4-[[6-cyano-5-(2,2-difluoroethoxy)-1H-benzimidazol-2-yl]methyl]-1-oxo-phthalazin-2-yl]methyl]pyrrolidin-1-yl]acetic acid] | 251 | 2100 | 836 | ≥ 19800 | 19800 | 443 |
| N#Cc1cc2[nH]c(Cc3nn(C4CCN(CC(=O)O)C4)c(=O)c4ccccc34)nc2cc1OCC(F)F (stereo not drawn) [Compound 71, 2-[3-[4-[[6-cyano-5-(2,2-difluoroethoxy)-1H-benzimidazol-2-yl]methyl]-1-oxo-phthalazin-2-yl]pyrrolidin-1-yl]acetic acid] | 156 | 357 | 356 | ≥ 19800 | 19800 | 134 |
| N#Cc1cc2nc(Cc3nn(CC(=O)O)c(=O)c4ccccc34)cn2cc1OCC1CC1 [Compound 79, 2-[4-[[7-cyano-6-(cyclopropylmethoxy)imidazo[1,2-a]pyridin-2-yl]methyl]-1-oxo-phthalazin-2-yl]acetic acid] | 57.7 | 221 | 82.7 | ≥ 19800 | 19800 | 503 |
| N#Cc1cc2[nH]c(Cn3cc(C(=O)O)c(=O)c4ccccc43)nc2cc1OCC(F)F [Compound 80, 1-[[6-cyano-5-(2,2-difluoroethoxy)-1H-benzimidazol-2-yl]methyl]-4-oxo-quinoline-3-carboxylic acid] | 46.8 | 619 | 42.3 | ≥ 19800 | 19800 | 122 |
| CC(C(=O)O)n1nc(Cc2cn3cc(OCC4CC4)c(C#N)cc3n2)c2ccccc2c1=O (stereo not drawn) [Compound 81, 2-[4-[[7-cyano-6-(cyclopropylmethoxy)imidazo[1,2-a]pyridin-2-yl]methyl]-1-oxo-phthalazin-2-yl]propanoic acid] | 20 | 120 | 22.6 | ≥ 19800 | 19800 | 151 |
| O=C(O)c1cn(Cc2cn3cc(OCC4CC4)c(Cl)cc3n2)c2ccccc2c1=O [Compound 84, 1-[[7-chloro-6-(cyclopropylmethoxy)imidazo[1,2-a]pyridin-2-yl]methyl]-4-oxo-quinoline-3-carboxylic acid] | 198 | 459 | 41.9 | ≥ 19800 | 19800 | 2460 |
